Data reported in patent EP4803525A1 (Hefei Institute of Pharmaceutical Industry Co., Ltd., priority 2023, dated 2025).
pIC50: −log10 of the molar value. Read-outs that look alike come from different tables or passages of the source.

Key:
hERG potassium channel = biological target: T1, hERG potassium channel (Homo sapiens, UniProt Q12809); experiment: hERG whole-cell patch-clamp test in HEK-293 cells; format: cell-based
T1 construct: host or cells: HEK-293
Method: HEK-293 cell line stably expressing hERG potassium channels (purchased from Creacell, catalog number: A-0320) was used. HEK293 cell lines were cultured in DMEM medium containing 10% fetal bovine serum and 0.8 mg/mL G418 at a temperature of 37°C and a carbon dioxide concentration of 5%. For patch-clamp assays, cells were separated using TrypLE™ Express before the assay. 4 × 10^3 cells were seeded onto coverslips and cultured in 24-well plates (final volume: 500 µL). The assays were performed 18 hours later.
Whole-cell patch-clamp test: after whole-cell sealing is achieved, the cell membrane voltage is clamped to -80mV. […] Data was collected every 10 seconds to observe the effect of the drug on hERG tail current. A -50 mV stimulus of 0.5 s was used as the leakage current detection. Experimental data were collected by the EPC-10 amplifier and stored in the software. Once the hERG current recorded in whole cells stabilized, drug administration began. Each drug concentration was administered for 5 minutes (or the current stabilized) before the next concentration was measured.

PDE4B2 = biological target: T2, PDE4B2 (Homo sapiens, UniProt Q07343); experiment: Inhibitory activity against PDE4B enzyme (AMP-Glo detection); format: biochemical
T2 construct: purchased BPS bioscience
Method: 2.1 Compound preparation and treatment: all compounds were prepared into 50 mM stock solutions using dimethyl sulfoxide.
2.2 Preparation of working stock solution: a) the reference rolipram was serially diluted 3 times with dimethyl sulfoxide starting from 2 mmol, to a total of 10 concentrations. b) 2 mmol of the compound of the present invention was serially diluted three times with dimethyl sulfoxide (DMSO) to a total of 10 concentrations. c) A 200X positive control (2 mM rolipram) and a 200X vector control (100% dimethyl sulfoxide) were prepared. d) The compound plate was centrifuged at 1000 rpm for 1 minute.
• a) An Echo 550 was used to transfer 20 nL of compound dilution to each well of the detection plate. • b) The test plate was sealed and centrifuged at 1000 rpm for 1 minute. • c) 2X PDE4B2 was prepared in frozen PDE detection buffer. • d) 2 µL of 2X PDE4B2 was added to each well of the detection plate (prepared in step b). • e) The test plate was sealed and incubated for 10 minutes under RT conditions. • f) 2X Cyclic-3',5'-AMP was prepared in PDE detection buffer. • g) 2 µl of 2X Cyclic-3',5'-AMP (prepared in step f) was added to each well of the detection plate (prepared in step e) to initiate the reaction. Incubation was performed at room temperature for 60 minutes. • h) 4 µL of AMP-Glo reagent I was added. • i) 8 µL of AMP detection solution was added. Incubation was performed at room temperature for 60 minutes. • k) The RLU signal was read on the Envision 2105 reader.

[1] = HEK-293 cells stably expressing hERG, whole-cell patch clamp, 0.03-30 µM, read-out: h ERG IC50

T1 sequence (Q12809 whole entry): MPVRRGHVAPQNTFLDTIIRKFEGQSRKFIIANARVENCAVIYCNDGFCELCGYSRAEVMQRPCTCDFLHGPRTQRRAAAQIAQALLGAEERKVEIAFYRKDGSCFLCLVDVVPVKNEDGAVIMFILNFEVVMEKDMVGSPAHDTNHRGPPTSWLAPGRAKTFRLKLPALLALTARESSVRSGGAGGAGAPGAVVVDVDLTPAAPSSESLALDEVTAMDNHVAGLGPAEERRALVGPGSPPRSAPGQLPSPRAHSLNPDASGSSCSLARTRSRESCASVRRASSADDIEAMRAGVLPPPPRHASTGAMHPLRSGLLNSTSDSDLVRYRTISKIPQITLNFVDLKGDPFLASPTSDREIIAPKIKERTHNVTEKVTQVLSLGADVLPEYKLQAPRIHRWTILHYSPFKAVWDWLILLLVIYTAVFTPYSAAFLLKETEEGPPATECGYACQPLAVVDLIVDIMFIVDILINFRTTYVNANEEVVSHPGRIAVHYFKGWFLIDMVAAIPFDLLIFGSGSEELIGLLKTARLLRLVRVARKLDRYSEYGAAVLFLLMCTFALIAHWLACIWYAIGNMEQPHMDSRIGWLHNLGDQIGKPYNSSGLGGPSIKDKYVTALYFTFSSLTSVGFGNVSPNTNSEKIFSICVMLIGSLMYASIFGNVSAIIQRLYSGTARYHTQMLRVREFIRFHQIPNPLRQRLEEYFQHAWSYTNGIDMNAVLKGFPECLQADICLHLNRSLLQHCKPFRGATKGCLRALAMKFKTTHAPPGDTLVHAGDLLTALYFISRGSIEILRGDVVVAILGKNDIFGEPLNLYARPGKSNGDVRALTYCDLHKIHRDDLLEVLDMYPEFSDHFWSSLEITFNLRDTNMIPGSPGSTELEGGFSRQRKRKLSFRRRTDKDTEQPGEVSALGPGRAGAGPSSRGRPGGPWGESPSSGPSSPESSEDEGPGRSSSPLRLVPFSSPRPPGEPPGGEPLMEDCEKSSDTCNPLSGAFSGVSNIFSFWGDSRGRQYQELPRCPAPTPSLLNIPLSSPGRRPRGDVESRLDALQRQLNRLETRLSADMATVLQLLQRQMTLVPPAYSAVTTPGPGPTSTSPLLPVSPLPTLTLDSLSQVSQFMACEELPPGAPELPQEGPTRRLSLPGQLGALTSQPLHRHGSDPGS
T2 sequence (Q07343 1-564 isoform Q07343-2): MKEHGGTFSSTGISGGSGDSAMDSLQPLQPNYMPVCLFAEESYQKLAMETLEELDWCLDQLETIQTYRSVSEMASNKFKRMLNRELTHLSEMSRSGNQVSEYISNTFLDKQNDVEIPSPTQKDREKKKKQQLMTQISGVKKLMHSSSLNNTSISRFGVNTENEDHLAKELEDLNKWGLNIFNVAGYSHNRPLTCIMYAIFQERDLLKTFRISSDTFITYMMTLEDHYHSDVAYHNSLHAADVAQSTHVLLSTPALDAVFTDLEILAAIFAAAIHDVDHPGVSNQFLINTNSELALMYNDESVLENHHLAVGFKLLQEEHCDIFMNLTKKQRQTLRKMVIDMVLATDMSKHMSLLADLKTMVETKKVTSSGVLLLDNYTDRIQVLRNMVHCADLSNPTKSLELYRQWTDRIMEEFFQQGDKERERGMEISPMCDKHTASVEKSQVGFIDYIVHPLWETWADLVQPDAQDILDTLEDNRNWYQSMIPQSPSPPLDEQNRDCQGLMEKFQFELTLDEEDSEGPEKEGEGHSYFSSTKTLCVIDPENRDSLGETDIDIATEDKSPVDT

[O-][S+]1CCc2nc(N3CC=C(c4ncc(Cl)cn4)CC3)nc(NC3(CO)CCC3)c21 (stereo not drawn) [Example 1, 2-(4-(5-chloropyrimidin-2-yl)-3,6-dihydropyridin-1(2H)-yl)-4-((1-(hydroxymethyl)cyclobutyl)amino)-6,7-dihydrothiopheno[3,2-d]pyrimidine-5-oxide]
pIC50 (hERG potassium channel; [1]): 4.84

[O-][S+]1CCc2nc(N3CCN(Cc4ncc(Cl)cn4)CC3)nc(NC3(CO)CCC3)c21 (stereo not drawn) [Example 2, 2-(4-((S-chloropyrimidin-2-yl)methyl)piperazin-1-yl)-4-((1-(hydroxymethyl)cyclobutyl)amino)-6,7-dihydrothiopheno[3,2-d]pyrimidine 5-oxide]
pIC50 (PDE4B2): 7.00 to 7.70
pIC50 (hERG potassium channel; [1]): < 4.52

O=C(c1ncc(Cl)cn1)N1CCN(c2nc3c(c(NC4(CO)CCC4)n2)[S+]([O-])CC3)CC1 (stereo not drawn) [Example 3, (5-chloropyrimidin-2-yl)(4-(4-((1-(hydroxymethyl)cyclobutyl)amino)-5-oxo-6,7-dihydrothieno[3,2-d]pyrimidin-2-yl)piperazin-1-yl)methanone]
pIC50 (hERG potassium channel; [1]): < 4.52

O=S1(=O)CCc2nc(N3CCC(c4ncc(Cl)cn4)CC3)nc(NC3(CO)CCC3)c21 [Example 4]
pIC50 (PDE4B2): 7.00 to 7.70
pIC50 (hERG potassium channel; [1]): < 4.52

Cc1ccc(O)c(C(=O)NC2CCN(c3nc4c(c(NC5(CO)CCC5)n3)[S+]([O-])CC4)CC2)c1 (stereo not drawn) [Example 7, 2-hydroxyl-N-(1-(4-((1-(hydroxymethyl)cyclobutyl)amino)-5-oxo-6,7-dihydrothiapheno[3,2-d]pyrimidin-2-yl)piperidin-4-yl)-5-methylbenzamide]
pIC50 (PDE4B2): 7.70 to 9.00
pIC50 (hERG potassium channel; [1]): < 4.52

[O-][S+]1CCc2nc(N3CC4(CN(c5ncc(Cl)cn5)C4)C3)nc(NC3(CO)CCC3)c21 (stereo not drawn) [Example 8]
pIC50 (PDE4B2): 7.00 to 7.70
pIC50 (hERG potassium channel; [1]): < 4.52

O=C(O)Cc1ccc(Nc2nc(N3CC=C(c4ncc(Cl)cn4)CC3)nc3c2[S+]([O-])CC3)cc1F (stereo not drawn) [Example 14, 2-(4-((2-(4-(5-chloropyrimidin-2-yl)-3,6-dihydropyridin-1(2H)-yl)-5-oxo-6,7-dihydrothiopheno[3,2-d]pyrimidin-4-yl)amino)-2-fluorophenyl)acetic acid]
pIC50 (hERG potassium channel; [1]): < 4.52

O=C(O)Cc1ccc(Nc2nc(N3CC=C(c4ncc(Cl)cn4)CC3)nc3c2S(=O)(=O)CCC3)cc1F [Example 18, 2-(4-((2-(4-(5-chloropyrimidin-2-yl)-3,6-dihydropyridin-1(2H)-yl)-5,5-dioxo-7,8-dihydro-6H -thiapyrano[3,2-d]pyrimidin-4-yl)amino)-2-fluorophenyl)acetic acid]
pIC50 (PDE4B2): > 9.00

O=C(O)Cc1ccc(Nc2nc(N3CCC(c4ncc(Cl)cn4)CC3)nc3c2S(=O)(=O)CCC3)cc1Cl [Example 21, 2-(2-chloro-4-((2-(4-(5-chloropyrimidin-2-yl)piperidin-1-yl)-5,5-dioxo-7,8-dihydro-6H -thiapyrano[3,2-d]pyrimidin-4-yl)amino)phenyl)acetic acid]
pIC50 (PDE4B2): 7.70 to 9.00
pIC50 (hERG potassium channel; [1]): < 4.52

O=C(O)Cc1c(F)cc(Nc2nc(N3CCC(c4ncc(Cl)cn4)CC3)nc3c2S(=O)(=O)CCC3)cc1F [Example 22, 2-(4-((2-(4-(5-chloropyrimidin-2-yl)piperidin-1-yl)-5,5-dioxo-7,8-dihydro-6H -thiapyrano[3,2-d]pyrimidin-4-yl)amino)-2,6-difluorophenyl)acetic acid]
pIC50 (PDE4B2): 7.70 to 9.00
pIC50 (hERG potassium channel; [1]): < 4.52

O=C(O)C1(c2ccc(Nc3nc(N4CCC(c5ncc(Cl)cn5)CC4)nc4c3S(=O)(=O)CCC4)cc2F)CC1 [Example 23, 1-(4-((2-(4-(5-chloropyrimidin-2-yl)piperidin-1-yl)-5,5-dioxo-7,8-dihydro-6H-thiapyrano[3,2-d]pyrimidin-4-yl)amino)-2-fluorophenyl)cyclopropane-1-carboxylic acid]
pIC50 (PDE4B2): 7.70 to 9.00

CC(C)(C)CNC(=O)Cc1ccc(Nc2nc(N3CCC(c4ncc(Cl)cn4)CC3)nc3c2S(=O)(=O)CCC3)cc1F [Example 24, 2-(4-((2-(4-(5-chloropyrimidin-2-yl)piperidin-1-yl)-5,5-dioxo-7,8-dihydro-6H -thiapyrano[3,2-d]pyrimidin-4-yl)amino)-2-fluorophenyl) -N-neopentylacetamide]
pIC50 (hERG potassium channel): < 4.52

O=C(O)C1(c2ccc(Nc3nc(N4CCC(c5ncc(Cl)cn5)CC4)nc4c3S(=O)(=O)CCC4)cc2F)CCC1 [Example 25, 1-(4-((2-(4-(5-chloropyrimidin-2-yl)piperidin-1-yl)-5,5-dioxo-7,8-dihydro-6H -thiapyrano[3,2-d]pyrimidin-4-yl)amino)-2-fluorophenyl)cyclobutane-1-carboxylic acid]
pIC50 (PDE4B2): 7.70 to 9.00

O=C(O)C1(c2ccc(Nc3nc(N4CC=C(c5ncc(Cl)cn5)CC4)nc4c3S(=O)(=O)CCC4)cc2F)CCC1 [Example 26, 1-(4-((2-(4-(5-chloropyrimidin-2-yl)-3,6-dihydropyridin-1(2H)-yl)-5,5-dioxo-7,8-dihydro-6H -thiapyrano[3,2-d]pyrimidin-4-yl)amino)-2-fluorophenyl)cyclobutane-1-carboxylic acid]
pIC50 (hERG potassium channel; [1]): < 4.52

O=C(O)Cc1ccc(Nc2nc(N3CCN(c4ncc(Cl)cn4)CC3)nc3c2S(=O)(=O)CCC3)cc1F [Example 27, 2-(4-((2-(4-(5-chloropyrimidin-2-yl)piperazin-1-yl)-5,5-dioxo-7,8-dihydro-6H -thiapyrano[3,2-d]pyrimidin-4-yl)amino)-2-fluorophenyl)acetic acid]
pIC50 (PDE4B2): 7.70 to 9.00
